From ChEMBL document CHEMBL5360587, “Differentiation-Promoting Effects of Okeaniamides A and B from an Okeania sp. Marine Cyanobacterium on Preadipocytes” (J Nat Prod, 2023)

Experiments:
[1] = tested on: 3T3-L1; assay: Cytotoxicity against mouse 3T3-L1 cells assessed as reduction in cell viability at 10 uM incubated for 3 days by MTT assay; type: toxicity, cell-based; settings: 3t3-l1, 72 h, time 3 day
[2] = tested on: 3T3-L1; assay: Induction of adipogenesis in mouse 3T3-L1 cells assessed as increase in lipid droplets formation incubated with media replacement for every 3 days and measured at day 9 in presence of insulin by Oil Red O staining based analysis; type: functional, cell-based; settings: dose 1-10 µM, time 9.0 day
[3] = tested on: 3T3-L1; assay: Induction of adipogenesis in mouse 3T3-L1 cells assessed as fold increase in OD value at 10 uM incubated with media replacement for every 3 days and measured for day 9 in presence of insulin by Oil Red O staining based analysis; type: functional; settings: time 9 day

Structure (SMILES) | Activity [1] | Activity [2] | fold change (FC) [3]
CCCCCCCCC/C(C)=C/[C@@H](C/C=C/CCC(=O)N(C)[C@@H](COC)C(=O)N1CCC[C@H]1C(C)=O)OC | Non-Toxic | Dose-Dependent Effect | 2.3
CCCCCC/C=C/C/C(C)=C/[C@@H](C/C=C/CCC(=O)N(C)[C@@H](COC)C(=O)N1CCC[C@H]1C(=O)CC)OC | Non-Toxic | Dose-Dependent Effect | 2.1
